The results in this text go back to patent US20230055237A1, “COMPOUNDS AND METHODS FOR THE TREATMENT OF CYSTIC FIBROSIS” (Flatley Discovery Lab, LLC, priority 2019, published 2023).

For this assay, the target named is T1, CFTR (Homo sapiens, UniProt P13569, DEL508-508).
T1 construct: Primary CF airway epithelial cells were obtained from the UNC Cystic Fibrosis Tissue Procurement and Cell Culture Core; host or cells: primary CF airway epithelial cells, differentiated at the air-liquid interface
Put plainly: Equivalent current assay in primary CF airway epithelial cells (NAUC, combination with 1st site corrector FDL169 or VX-809). The class given is cell-based. The following applies: 37° C., 24 h.

Setting [1] is: test compound 1 μM in combination with 1st site corrector VX-809 (3 μM).
Where [2] appears, read: test compound 3 μM in combination with 1st site corrector VX-809 (3 μM).
The mark [3] stands for this setting: test compound 10 μM in combination with 1st site corrector VX-809 (3 μM).
Where [4] appears, read: test compound 1 μM in combination with 1st site corrector FDL169 (3 μM).
Setting [5] is: test compound 3 μM in combination with 1st site corrector FDL169 (3 μM).

T1 sequence (P13569 with tags, fused parts or gaps DEL508-508): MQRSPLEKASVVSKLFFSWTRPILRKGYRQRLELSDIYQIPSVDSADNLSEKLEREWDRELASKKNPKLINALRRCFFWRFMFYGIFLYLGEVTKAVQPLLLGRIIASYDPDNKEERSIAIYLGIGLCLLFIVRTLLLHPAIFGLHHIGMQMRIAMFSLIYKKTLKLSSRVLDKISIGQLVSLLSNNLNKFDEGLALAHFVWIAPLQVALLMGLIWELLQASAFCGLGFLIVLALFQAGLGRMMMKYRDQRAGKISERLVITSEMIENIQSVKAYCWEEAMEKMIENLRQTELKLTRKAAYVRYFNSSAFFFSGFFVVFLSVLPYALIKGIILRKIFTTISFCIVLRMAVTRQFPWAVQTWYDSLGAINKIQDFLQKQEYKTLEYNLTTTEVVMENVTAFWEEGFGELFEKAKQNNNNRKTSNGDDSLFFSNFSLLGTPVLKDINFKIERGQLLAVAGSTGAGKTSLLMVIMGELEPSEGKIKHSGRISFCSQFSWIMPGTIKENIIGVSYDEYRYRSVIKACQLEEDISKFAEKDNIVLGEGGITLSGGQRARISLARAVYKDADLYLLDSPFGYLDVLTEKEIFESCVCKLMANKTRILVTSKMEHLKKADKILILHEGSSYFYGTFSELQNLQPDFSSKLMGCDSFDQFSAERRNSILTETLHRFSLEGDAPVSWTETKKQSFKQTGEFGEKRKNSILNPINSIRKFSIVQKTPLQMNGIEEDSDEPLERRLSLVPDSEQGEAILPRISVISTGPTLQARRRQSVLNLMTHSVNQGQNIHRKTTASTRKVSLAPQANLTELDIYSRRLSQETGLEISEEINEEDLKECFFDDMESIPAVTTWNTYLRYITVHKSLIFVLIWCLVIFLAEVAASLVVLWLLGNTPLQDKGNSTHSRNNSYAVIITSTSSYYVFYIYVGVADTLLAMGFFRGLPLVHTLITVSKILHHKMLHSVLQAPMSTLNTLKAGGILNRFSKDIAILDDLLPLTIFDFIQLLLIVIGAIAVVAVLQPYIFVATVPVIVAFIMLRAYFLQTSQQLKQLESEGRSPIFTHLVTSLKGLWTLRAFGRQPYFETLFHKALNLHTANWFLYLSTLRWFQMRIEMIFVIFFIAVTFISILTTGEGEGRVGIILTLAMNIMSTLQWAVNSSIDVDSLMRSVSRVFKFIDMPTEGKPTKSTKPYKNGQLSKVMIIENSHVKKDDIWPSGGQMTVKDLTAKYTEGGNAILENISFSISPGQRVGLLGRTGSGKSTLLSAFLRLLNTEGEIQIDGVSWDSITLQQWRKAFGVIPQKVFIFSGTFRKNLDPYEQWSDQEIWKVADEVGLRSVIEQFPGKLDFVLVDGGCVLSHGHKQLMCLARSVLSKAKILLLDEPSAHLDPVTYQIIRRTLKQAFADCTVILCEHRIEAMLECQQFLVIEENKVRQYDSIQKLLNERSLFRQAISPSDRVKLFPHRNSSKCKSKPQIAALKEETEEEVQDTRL

On to `NC(=O)[C@H]1[C@@H](C(=O)Nc2cc(Cl)cc(Cl)c2)[C@H]2CC(F)(F)CN2[C@]12C(=O)Nc1c(Cl)cc(Cl)cc12` [Example 228, (1′R,2′S,3R,7a′R)-5,7-dichloro-N1′-(3,5-dichlorophenyl)-6′,6′-difluoro-2-oxo-1′,2′,5′,6′,7′,7a′-hexahydrospiro[indoline-3,3′-pyrrolizine]-1′,2′-dicarboxamide], for which the “Nauc @ 1 μM” value under setting [1] is on record as “+ (NAUC “+” refers to an observed NAUC <140% of positive control)”. The “Nauc @ 3 μM” value under setting [2] is recorded as “+ (NAUC “+” refers to an observed NAUC <140% of positive control)”. The “Nauc @ 10 μM” value under setting [3] is “+ (NAUC “+” refers to an observed NAUC <140% of positive control)”.
As for `CC(C)(C)c1cccc(C(C)(C)CNC(=O)C2C3CC(F)(F)CN3C3(C(=O)Nc4c(Cl)cc(Cl)cc43)C2C(=O)O)c1` (centres unmarked) [Example 64], the “Nauc @ 10 μM” value under setting [3] was “+++ (NAUC “+++” refers to an observed NAUC>170% of positive control)”.
In the case of `CC(C)(C)c1ccc(CCNC(=O)C2C3CC(F)(F)CN3C3(C(=O)Nc4c(Cl)cc(Cl)cc43)C2C(=O)O)cc1` (centres unmarked) [Example 46], under setting [2], the “Nauc @ 3 μM” value is listed as “+++ (NAUC “+++” refers to an observed NAUC>170% of positive control)”. Moreover, the “Nauc @ 10 μM” value under setting [3] is “+++ (NAUC “+++” refers to an observed NAUC>170% of positive control)”.
As for `O=C(Nc1cc(Cl)cc(Cl)c1)C1C2CC(F)(F)CN2C2(C(=O)Nc3c(Cl)cc(Cl)cc32)C1C(=O)NO` (single isomer, unassigned) [Example 226b, 5,7-dichloro-N1′-(3,5-dichlorophenyl)-6′,6′-difluoro-N2′-hydroxy-2-oxo-1′,2′,5′,6′,7′,7a′-hexahydrospiro[indoline-3,3′-pyrrolizine]-1′,2′-dicarboxamide], under setting [1], the “Nauc @ 1 μM” value is reported as “+ (NAUC “+” refers to an observed NAUC <140% of positive control)”. Further, under setting [2], the “Nauc @ 3 μM” value is given as “+++ (NAUC “+++” refers to an observed NAUC>170% of positive control)”. Also, the “Nauc @ 10 μM” value under setting [3] was “+++ (NAUC “+++” refers to an observed NAUC>170% of positive control)”.
As to `Cn1cc(N(CC2CC2)C(=O)[C@H]2[C@H]3CC(F)(F)CN3[C@]3(C(=O)Nc4c(Cl)cc(Cl)cc43)[C@H]2C(=O)O)c(C(F)(F)F)n1` [Example 166], the “Nauc @ 1 μM” value under setting [4] is reported as “+ (NAUC “+” refers to an observed NAUC <140% of positive control)”. Also, the “Nauc @ 3 μM” value under setting [5] is listed as “+ (NAUC “+” refers to an observed NAUC <140% of positive control)”.
Regarding `Cc1oc(=O)oc1COC(=O)[C@H]1[C@@H](C(=O)N(C)c2cc(Cl)cc(Cl)c2)[C@H]2CC(F)(F)CN2C12C(=O)N(Cc1oc(=O)oc1C)c1c(Cl)cc(Cl)cc12` (mixture of isomers) [Example 250.3b, rac-(5-methyl-2-oxo-1,3-dioxo1-4-yl)methyl (1′R,2′S,3R,7a′R)-5,7-dichloro-1′-((3,5-dichlorophenyl)(methyl)carbamoyl)-6′,6′-difluoro-1-45-methyl-2-oxo-1,3-dioxol-4-yl)methyl)-2-oxo-1′,2′,5′,6′,7′,7a′-hexahydrospiro[indoline-3,3′-pyrrolizine]-2′-carboxylate], the “Nauc @ 10 μM” value under setting [3] was “+ (NAUC “+” refers to an observed NAUC <140% of positive control)”.
Consider `Cn1ncc2cc(NC(=O)[C@H]3[C@H]4CC(F)(F)CN4[C@]4(C(=O)Nc5c(Cl)cc(Cl)cc54)[C@H]3C(=O)O)ccc21` [Example 138], for which the “Nauc @ 1 μM” value under setting [4] is recorded as “+ (NAUC “+” refers to an observed NAUC <140% of positive control)”. Moreover, the “Nauc @ 3 μM” value under setting [5] is recorded as “+ (NAUC “+” refers to an observed NAUC <140% of positive control)”.
Consider `CN(C(=O)[C@H]1[C@H]2CC(F)(F)CN2[C@]2(C(=O)Nc3c(Cl)cc(Cl)cc32)[C@H]1C(=O)O)c1ccccc1-c1ccccc1` [Example 162], for which the “Nauc @ 1 μM” value under setting [4] was “+++ (NAUC “+++” refers to an observed NAUC>170% of positive control)”. Moreover, under setting [5], the “Nauc @ 3 μM” value was “+++ (NAUC “+++” refers to an observed NAUC>170% of positive control)”. Where the note is “test compound 10 μM in combination with 1st site corrector FDL169 (3 μM)”, the “Nauc @ 10 μM” value is on record as “+++ (NAUC “+++” refers to an observed NAUC>170% of positive control)”.
Take `COC(=O)[C@@]1(C)[C@@H](C(=O)N(C)c2cc(Cl)cc(Cl)c2)[C@H]2CC(F)(F)CN2C12C(=O)Nc1c(Cl)cc(Cl)cc12` (some centres unmarked) [Example 282]: under setting [4], the “Nauc @ 1 μM” value is given as “+ (NAUC “+” refers to an observed NAUC <140% of positive control)”. Further, under setting [5], the “Nauc @ 3 μM” value is listed as “+ (NAUC “+” refers to an observed NAUC <140% of positive control)”.
With `CN(C(=O)[C@H]1[C@H]2CC(F)(F)CN2C2(C(=O)Nc3c(Cl)cc(Cl)cc32)[C@H]1C(=O)O)c1cccc(C(F)(F)F)n1` (some centres unmarked) [Example 292], the “Nauc @ 1 μM” value under setting [1] is listed as “++ (NAUC “++” refers to an observed NAUC 170-140% of positive control)”. Under setting [2], the “Nauc @ 3 μM” value is “+++ (NAUC “+++” refers to an observed NAUC>170% of positive control)”. For the same compound, under setting [3], the “Nauc @ 10 μM” value is “+++ (NAUC “+++” refers to an observed NAUC>170% of positive control)”.
Regarding `COc1cc(C(F)(F)F)cc(NC(=O)C2C3CC(F)(F)CN3C3(C(=O)Nc4c(Cl)cc(Cl)cc43)C2C(=O)O)n1` (single isomer, unassigned) [Example 80.7a.2, 5,7-dichloro-6′,6′-difluoro-1′-((6-methoxy-4-(trifluoromethyl)pyridin-2-yl)carbamoyl)-2-oxo-1′,2′,5′,6′,7′,7a′-hexahydrospiro[indoline-3,3′-pyrrolizine]-2′-carboxylic acid], the “Nauc @ 1 μM” value under setting [1] is listed as “+ (NAUC “+” refers to an observed NAUC <140% of positive control)”. Moreover, the “Nauc @ 3 μM” value under setting [2] is “+++ (NAUC “+++” refers to an observed NAUC>170% of positive control)”. Besides, the “Nauc @ 10 μM” value under setting [3] is given as “+++ (NAUC “+++” refers to an observed NAUC>170% of positive control)”.
Regarding `O=C(Nc1cc(Cl)cc(Cl)c1)C1C(C(F)(F)c2cccc(Cl)c2)NC2(C(=O)Nc3c(Cl)cc(Cl)cc32)C1C(=O)O` (centres unmarked) [Example 68.c], the “Nauc @ 1 μM” value under setting [1] is “+ (NAUC “+” refers to an observed NAUC <140% of positive control)”. Further, the “Nauc @ 3 μM” value under setting [2] was “+++ (NAUC “+++” refers to an observed NAUC>170% of positive control)”. Under setting [3], the “Nauc @ 10 μM” value is reported as “+++ (NAUC “+++” refers to an observed NAUC>170% of positive control)”.
Take `CC(C)(CO)c1cccc(CCNC(=O)[C@H]2[C@H]3CC(F)(F)CN3C3(C(=O)Nc4c(Cl)cc(Cl)cc43)[C@H]2C(=O)O)c1` (some centres unmarked) [Example 293]: the “Nauc @ 10 μM” value under setting [3] is given as “+ (NAUC “+” refers to an observed NAUC <140% of positive control)”.
As for `O=C(Nc1ccccc1-c1ccccc1)[C@H]1[C@H]2CC(F)(F)CN2[C@]2(C(=O)Nc3c(Cl)cc(Cl)cc32)[C@H]1C(=O)O` [Example 121], under setting [1], the “Nauc @ 1 μM” value is reported as “+++ (NAUC “+++” refers to an observed NAUC>170% of positive control)”. Also, the “Nauc @ 3 μM” value under setting [2] is “+++ (NAUC “+++” refers to an observed NAUC>170% of positive control)”. Besides, the “Nauc @ 10 μM” value under setting [3] is “++ (NAUC “++” refers to an observed NAUC 170-140% of positive control)”.
Consider `O=C(Nc1cc(Cl)cc(Cl)c1)C1CN(CC(F)(F)F)C2(C(=O)Nc3c(Cl)cc(Cl)cc32)C1C(=O)O` (centres unmarked) [Example 79a], for which, under setting [1], the “Nauc @ 1 μM” value is “+ (NAUC “+” refers to an observed NAUC <140% of positive control)”. For the same compound, the “Nauc @ 3 μM” value under setting [2] was “+ (NAUC “+” refers to an observed NAUC <140% of positive control)”. For the same compound, the “Nauc @ 10 μM” value under setting [3] is “+ (NAUC “+” refers to an observed NAUC <140% of positive control)”.
As to `COCCN(C(=O)[C@H]1[C@H]2CC(F)(F)CN2[C@]2(C(=O)Nc3c(Cl)cc(Cl)cc32)[C@H]1C(=O)O)c1cc(Cl)cc(Cl)c1` [Example 132], the “Nauc @ 1 μM” value under setting [1] is “+++ (NAUC “+++” refers to an observed NAUC>170% of positive control)”. Under setting [2], the “Nauc @ 3 μM” value is reported as “+++ (NAUC “+++” refers to an observed NAUC>170% of positive control)”. The “Nauc @ 10 μM” value under setting [3] is “+++ (NAUC “+++” refers to an observed NAUC>170% of positive control)”.
Turning to `O=C(Nc1cccc2c1OCCO2)[C@H]1[C@H]2CC(F)(F)CN2[C@]2(C(=O)Nc3c(Cl)cc(Cl)cc32)[C@H]1C(=O)O` [Example 129], the “Nauc @ 1 μM” value under setting [1] is listed as “+ (NAUC “+” refers to an observed NAUC <140% of positive control)”. Besides, the “Nauc @ 3 μM” value under setting [2] was “+ (NAUC “+” refers to an observed NAUC <140% of positive control)”.
As for `CCC(=O)N1C(C(C)C)C(C(=O)Nc2cc(Cl)cc(Cl)c2)C(C(=O)O)C12C(=O)Nc1c(Cl)cc(Cl)cc12` (centres unmarked) [Example 26], the “Nauc @ 3 μM” value under setting [2] is reported as “++ (NAUC “++” refers to an observed NAUC 170-140% of positive control)”. Also, under setting [3], the “Nauc @ 10 μM” value is “+++ (NAUC “+++” refers to an observed NAUC>170% of positive control)”.
For the compound `CN(C(=O)[C@H]1[C@H]2CC(F)(F)CN2C2(C(=O)Nc3c(Cl)cc(Cl)cc32)[C@H]1C(=O)NS(=O)(=O)c1ccccc1)c1cc(Cl)cc(Cl)c1` (mixture of isomers) [Example 230, rel-(1′R,2′S,3R,7a′R)-5,7-dichloro-N1′-(3,5-dichlorophenyl)-6′,6′-difluoro-N1′-methyl-2-oxo-N2′-(phenylsulfonyl)-1′,2′,5′,6′,7′,7a′-hexahydrospiro[indoline-3,3′-pyrrolizine]-1′,2′-dicarboxamide], the “Nauc @ 10 μM” value under setting [3] is listed as “+ (NAUC “+” refers to an observed NAUC <140% of positive control)”.
Consider `O=C(Nc1cc(Cl)cc(Cl)c1)C1C(C(F)(F)c2cccc(C(F)(F)F)c2)NC2(C(=O)Nc3c(Cl)cc(Cl)cc32)C1C(=O)O` (centres unmarked) [Example 70.a], for which, under setting [3], the “Nauc @ 10 μM” value was “+ (NAUC “+” refers to an observed NAUC <140% of positive control)”.
As to `CN(C(=O)[C@H]1[C@H]2CC(F)(F)CN2[C@]2(C(=O)Nc3c(Cl)cc(Cl)cc32)[C@H]1C(=O)NCC(F)(F)F)c1cc(Cl)cc(Cl)c1` (single isomer, unassigned) [Example 232b], the “Nauc @ 1 μM” value under setting [1] was “+ (NAUC “+” refers to an observed NAUC <140% of positive control)”. Besides, under setting [2], the “Nauc @ 3 μM” value was “+ (NAUC “+” refers to an observed NAUC <140% of positive control)”. Further, the “Nauc @ 10 μM” value under setting [3] is on record as “+ (NAUC “+” refers to an observed NAUC <140% of positive control)”.
